According to ChEMBL document CHEMBL1153753, “Structure-activity relationships and mechanism of action of antitumor bis 8-hydroxyquinoline substituted benzylamines” (Eur J Med Chem, 2010):
Active and inactive are the calls of the source. The calls are words filed in the database; no cut-off is given here.

Tests used:
[1] = system: U-87MG ATCC; assay: Antiproliferative activity against human U87 cells expressing GFP assessed as apparent cell death at 20 uM after 3 days by flash-cytometry; assay type: functional, cell-based
[2] = Disregulation of cell development related gene expression in human U87 cells assessed as change in HOXA6 mRNA level at 0.5 uM after 16 hrs by microarray analysis relative to untreated control; assay type: functional, cell-based; details: U-87MG ATCC
[3] = Disregulation of endoplasmic reticulum stress responsive gene expression in human U87 cells assessed as change in RGS16 mRNA level at 0.5 uM after 3 hrs by microarray analysis relative to untreated control; assay type: functional, cell-based; details: U-87MG ATCC
[4] = Disregulation of cell survival related gene expression in human U87 cells assessed as change in FGF18 mRNA level at 0.5 uM after 16 hrs by microarray analysis relative to untreated control; assay type: functional, cell-based; details: U-87MG ATCC
[5] = Disregulation of DNA-damage and oxidative stress responsive gene expression in human U87 cells assessed as change in DDIT4 mRNA level at 0.5 uM after 16 hrs by microarray analysis relative to untreated control; assay type: functional, U-87MG ATCC
[6] = Cytotoxicity against human KB3 cells after 72 hrs by MTS assay; assay type: functional; details: KB3, 72 h
[7] = Disregulation of apoptosis related gene expression in human U87 cells assessed as change in NOXA mRNA level at 0.5 uM after 3 hrs by microarray analysis relative to untreated control; assay type: functional, cell-based; details: U-87MG ATCC
[8] = Disregulation of cell cycle related gene expression in human U87 cells assessed as change in EDN1 mRNA level at 0.5 uM after 3 hrs by microarray analysis relative to untreated control; assay type: functional, cell-based; details: U-87MG ATCC
[9] = Disregulation of inflammation related gene expression in human U87 cells assessed as change in EREG mRNA level at 0.5 uM after 3 hrs by microarray analysis relative to untreated control; assay type: functional, cell-based; details: U-87MG ATCC
[10] = system: U-87MG ATCC; assay: Antiproliferative activity against human U87 cells expressing GFP assessed as reduction in cell density at 20 uM by flash-cytometry; assay type: functional, cell-based
[11] = Disregulation of DNA-damage and oxidative stress responsive gene expression in human U87 cells assessed as change in GADD45A mRNA level at 0.5 uM after 16 hrs by microarray analysis relative to untreated control; assay type: functional, U-87MG ATCC
[12] = Disregulation of inflammation related gene expression in human U87 cells assessed as change in IL1F5 mRNA level at 0.5 uM after 16 hrs by microarray analysis relative to untreated control; assay type: functional, cell-based; details: U-87MG ATCC
[13] = Cytotoxicity against human U373 cells by MTT assay; assay type: functional, cell-based, U-373MG ATCC; details: U373 MG
[14] = Disregulation of cell cycle related gene expression in human U87 cells assessed as change in CDK2 mRNA level at 0.5 uM after 16 hrs by microarray analysis relative to untreated control; assay type: functional, cell-based; details: U-87MG ATCC
[15] = Disregulation of cell cycle related gene expression in human U87 cells assessed as change in CDC6 mRNA level at 0.5 uM after 16 hrs by microarray analysis relative to untreated control; assay type: functional, cell-based; details: U-87MG ATCC
[16] = Antiproliferative activity against human U87 cells expressing GFP after 3 days by flash-cytometry; assay type: functional, U-87MG ATCC; details: U-87 MG, 72 h, read-out: ED50 (the source's name)
[17] = Disregulation of apoptosis related gene expression in human U87 cells assessed as change in BIM mRNA level at 0.5 uM after 16 hrs by microarray analysis relative to untreated control; assay type: functional, cell-based; details: U-87MG ATCC
[18] = Disregulation of apoptosis related gene expression in human U87 cells assessed as change in GDF15 mRNA level at 0.5 uM after 16 hrs by microarray analysis relative to untreated control; assay type: functional, cell-based; details: U-87MG ATCC
[19] = Disregulation of inflammation related gene expression in human U87 cells assessed as change in CCL17 mRNA level at 0.5 uM after 3 hrs by microarray analysis relative to untreated control; assay type: functional, cell-based; details: U-87MG ATCC
[20] = Disregulation of cell cycle related gene expression in human U87 cells assessed as change in SKP2 mRNA level at 0.5 uM after 16 hrs by microarray analysis relative to untreated control; assay type: functional, cell-based; details: U-87MG ATCC
[21] = Disregulation of cell development related gene expression in human U87 cells assessed as change in PRPX1 mRNA level at 0.5 uM after 16 hrs by microarray analysis relative to untreated control; assay type: functional, cell-based; details: U-87MG ATCC
[22] = Disregulation of inflammation related gene expression in human U87 cells assessed as change in CXCL3 mRNA level at 0.5 uM after 16 hrs by microarray analysis relative to untreated control; assay type: functional, cell-based; details: U-87MG ATCC
[23] = Disregulation of cell survival related gene expression in human U87 cells assessed as change in FGF2 mRNA level at 0.5 uM after 16 hrs by microarray analysis relative to untreated control; assay type: functional, cell-based; details: U-87MG ATCC
[24] = Disregulation of cell survival related gene expression in human U87 cells assessed as change in BCL2L10 mRNA level at 0.5 uM after 16 hrs by microarray analysis relative to untreated control; assay type: functional, cell-based; details: U-87MG ATCC
[25] = Disregulation of cell cycle related gene expression in human U87 cells assessed as change in CDCA7 mRNA level at 0.5 uM after 16 hrs by microarray analysis relative to untreated control; assay type: functional, cell-based; details: U-87MG ATCC
[26] = Disregulation of endoplasmic reticulum stress responsive gene expression in human U87 cells assessed as change in PUMA mRNA level at 0.5 uM after 16 hrs by microarray analysis relative to untreated control; assay type: functional, cell-based; details: U-87MG ATCC
[27] = Disregulation of endoplasmic reticulum stress responsive gene expression in human U87 cells assessed as change in ATF4 mRNA level at 0.5 uM after 16 hrs by microarray analysis relative to untreated control; assay type: functional, cell-based; details: U-87MG ATCC
[28] = Disregulation of cell cycle related gene expression in human U87 cells assessed as change in CCPG1 mRNA level at 0.5 uM after 16 hrs by microarray analysis relative to untreated control; assay type: functional, cell-based; details: U-87MG ATCC
[29] = Disregulation of inflammation related gene expression in human U87 cells assessed as change in IL1A mRNA level at 0.5 uM after 16 hrs by microarray analysis relative to untreated control; assay type: functional, cell-based; details: U-87MG ATCC
[30] = Disregulation of cell development related gene expression in human U87 cells assessed as change in ISL2 mRNA level at 0.5 uM after 16 hrs by microarray analysis relative to untreated control; assay type: functional, cell-based; details: U-87MG ATCC
[31] = Disregulation of apoptosis related gene expression in human U87 cells assessed as change in IGFBP3 mRNA level at 0.5 uM after 16 hrs by microarray analysis relative to untreated control; assay type: functional, cell-based; details: U-87MG ATCC
[32] = Disregulation of cell cycle related gene expression in human U87 cells assessed as change in CDC25A mRNA level at 0.5 uM after 16 hrs by microarray analysis relative to untreated control; assay type: functional, cell-based; details: U-87MG ATCC
[33] = Disregulation of endoplasmic reticulum stress responsive gene expression in human U87 cells assessed as change in ATF3 mRNA level at 0.5 uM after 16 hrs by microarray analysis relative to untreated control; assay type: functional, cell-based; details: U-87MG ATCC
[34] = Disregulation of endoplasmic reticulum stress responsive gene expression in human U87 cells assessed as change in ARN1 mRNA level at 0.5 uM after 16 hrs by microarray analysis relative to untreated control; assay type: functional, cell-based; details: U-87MG ATCC
[35] = Disregulation of endoplasmic reticulum stress responsive gene expression in human U87 cells assessed as change in Chop mRNA level at 0.5 uM after 16 hrs by microarray analysis relative to untreated control; assay type: functional, cell-based; details: U-87MG ATCC

SMILES: Cc1ccc(CN(Cc2ccc(O)c3ncccc23)Cc2ccc(O)c3ncccc23)cc1
- Activity [1]: inactive
- fold change (FC) [2]: 3
- fold change (FC) [3]: > 1.4
- fold change (FC) [4]: 3
- fold change (FC) [5]: 3
- CC50 [6]: 3 nM
- fold change (FC) [7]: > 1.4
- fold change (FC) [8]: > 1.4
- fold change (FC) [9]: > 1.4
- Activity [10]: Active
- fold change (FC) [11]: 3
- fold change (FC) [12]: 3
- IC50 [13]: 53 nM
- fold change (FC) [14]: 3
- fold change (FC) [15]: 3
- EC50 [16]: < 200 nM
- fold change (FC) [17]: 3
- fold change (FC) [18]: 3
- fold change (FC) [19]: > 1.4
- fold change (FC) [20]: 3
- fold change (FC) [21]: 3
- fold change (FC) [22]: 3
- fold change (FC) [23]: 3
- fold change (FC) [24]: 3
- fold change (FC) [25]: 3
- fold change (FC) [26]: 3
- fold change (FC) [27]: 3
- fold change (FC) [28]: 3
- Activity [29]: Active
- fold change (FC) [30]: 3
- fold change (FC) [31]: 3
- fold change (FC) [32]: 3
- Activity [33]: Active
- fold change (FC) [34]: 3
- fold change (FC) [35]: 3
